Laboratory results: patent US6949521B2, “Therapeutic azide compounds” (priority 1995, dated 2005)
Where two headings read alike, the source gives them in different places.

Columns and labels:
[1] = in vitro; settings: female, NIH Swiss, mouse, liver homogenate
Description: (§4) All the solvents were of HPLC grade. Chromatography was performed on an Altech Hypersil ODS C18 (5 μm particle size, 4.5×150 mm, Altech Associates, Deerfield, Ill.).
(§5) In vitro metabolism study. Female NIH Swiss mice (Harland Sprague-Dawley, Indianapolis, Ind.) were sacrificed and serum, liver and brain tissues were collected before each experiment. Serum was collected from several animals. The brain and liver were washed in normal saline at 4° C., wiped and then weighed. […] Samples and blanks of volume 400 μL were collected at 0, 5, 15, and 30 minutes and at 1, 2, 3, 4 and 5 hours.
(§6) To measure the analyte concentrations in serum, liver or brain homogenate, 400 μL of sample was mixed with 50 μL of internal standard (AzdU, 5 μg/mL) and 0.7 mL of acetonitrile. After centrifugation, the supernatant was decanted to another tube and treated with anhydrous Na2SO4, then vortexed for one minute and centrifuged again. The organic layer was separated and evaporated under nitrogen stream at room temperature. The residue was reconstituted in mobile phase A and filtered through MPS-I micropartition system (3KD membranes (Amicon Inc., Beverly, Mass.) by centrifugation for 50 minutes at 2000 rpm to further clean-up the samples. 100 μL of filtrate was injected for analysis.

[2] = In vitro metabolism study of 6-AAP and ara-A in mouse liver homogenate, serum and brain homogenate
Description: as §4, §5, §6

[3] = In vitro stability in PBS, mouse serum, brain and liver homogenate (FAAddP, FMAddA); type: in vitro ADME; settings: for stability in phosphate buffer saline: PBS pH 7.4, 37° C.; for half-life at 70 μM: mouse
Description: In vitro stability in serum, brain and liver homogenate. Liver and brain homogenate were prepared in a 1: 1 (g:mL) ratio with isotonic 0.05 M phosphate buffer, pH 7.4. FAAddP (70 μM) or FMAddA (50 μM) were added to the mouse serum, the brain homogenate or the liver homogenate and incubated in a shaker water bath at 37° C. Aliquots of 100 μL were removed at time zero and at selected times for up to 6 hours. Concentrations of the compounds were determined by HPLC.
(§1) Analytical Methodology. […] The brain or liver tissue were homogenized in a 1:1 (g:mL) ratio with ice cold isotonic 0.05 M phosphate buffer, pH 7.4. […] Acetonitrile (600 μL) containing 0.1% acetic acid was added while vortexing to precipitate proteins. The tubes were centrifuged at 3,000 rpm for five minutes and the supernatant was transferred to a clean tube. Supernatant was evaporated to dryness under a stream of nitrogen gas at room temperature. The residual film was reconstituted in 110 μL of mobile phase and 50 μL was injected onto the HPLC.
(§2) Chromatographic separations were performed using a Hypersil ODS column 150×4.5 mm, 5 μm particle size (Alltech Associates, Deerfield, Ill.) preceded by a guard column packed with 30-40 μm pellicular Perisorb RP-18. Mobile phase flow rate was 2 mL/min. For the analysis of FAAddP and 2′-F-ara-ddA, the mobile phase consisted of 7% (v/v) acetonitrile in 80 mM sodium acetate, pH 5.0. […] Eluants were monitored at a UV wavelength of 260 nm.
(§3) Nucleoside standards ranging from 0.04 μg/mL to 100 μg/mL, prepared in blank PBS, serum, brain homogenate and liver homogenate were treated the same as unknown samples. Samples with nucleoside concentrations greater than 100 μg/mL were diluted with the appropriate blank matrix.
Data analysis in vitro studies.

[4] = target: T1, adenosine deaminase (type VII from calf intestinal mucosa) (Bos taurus, UniProt P56658); experiment: Deamination by adenosine deaminase (2′-fluoronucleosides); type: biochemical
T1 construct: type VII from calf intestinal mucosa; purchased Sigma Chemical Co., St. Louis, Mo. type VII; host or cells: calf intestinal mucosa
T1 sequence (P56658 1-363): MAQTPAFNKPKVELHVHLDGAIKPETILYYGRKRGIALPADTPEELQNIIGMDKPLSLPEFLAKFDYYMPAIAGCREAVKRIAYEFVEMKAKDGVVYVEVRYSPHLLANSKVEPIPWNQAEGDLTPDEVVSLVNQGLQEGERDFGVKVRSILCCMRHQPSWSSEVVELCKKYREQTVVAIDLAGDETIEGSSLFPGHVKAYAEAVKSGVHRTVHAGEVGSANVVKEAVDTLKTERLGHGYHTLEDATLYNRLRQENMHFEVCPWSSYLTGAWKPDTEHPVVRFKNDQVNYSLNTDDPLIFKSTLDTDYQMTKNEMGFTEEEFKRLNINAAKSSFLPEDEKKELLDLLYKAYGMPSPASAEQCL
Description: Deamination of 2′-F-ara-ddA and FMAddA by adenosine deaminase. Samples (1.5 mL) of 2′-F-ara-ddA (80 μM) or FMAddA (50 μM) were prepared in 0.05 M isotonic phosphate buffer, pH 7.4, and placed into a shaking water bath at 37° C. The reaction was initiated by the addition of 15 μL of adenosine deaminase (type VII from calf intestinal mucosa, Sigma Chemical Co., St. Louis, Mo.). The final activity in the incubation media was 0.05 U/mL for 2′-F-ara-ddA and 1.0 U/mL for FMAddA. At specified time intervals, aliquots of 100 μL were withdrawn for the determination of 2′-F-ara-ddA and 2′-F-ara-ddI or FMAddA and 2′-F-ara-ddI concentrations.
Mobile phase flow rate was 2 mL/min.

[5] = in vivo; settings: for half-life: t½; for AUC: AUC0-τ
Excerpt: Animal studies. […] Animal studies were approved by the University of Georgia Animal Care and Use Committee and conducted in accordance with guidelines established by the Animal Welfare Act and the National Institutes of Health Guide for the Care and Use of Laboratory Animals. […] Animals were acclimatized to this environment for one week prior to the experiments.
At selected time intervals, mice (three animals per each time point) were anesthetized with diethyl ether and sacrificed by exsanguination via left ventricular heart puncture. Serum was harvested from blood collected. The brain was excised, rinsed with normal saline, blotted dry and weighed.
as §1, §2, §3
Data analysis in vivo studies. Nucleoside concentration as a function of time data were analyzed by a non-compartmental technique. […] Relative brain exposure (re) was calculated from AUCbrain/AUCserum.

[6] = test system: microsomal fraction of the human liver homogenate; experiment: Azido reduction assay
Description: Briefly, incubation mixtures contained either 1.5 mg of human liver fraction protein (homogenate or supernatant fractions following centrifugation) or 1.5 mg microsomal protein, 5.0 mM MgCl2, 6.0 mM NADPH and 0.4 mg/mL of 6-AAP in 0.1 M phosphate buffer saline at pH 7.4 (final volume of 0.2 mL). The reaction was initiated by adding NADPH and conducted at 37° C. for 60 minutes under nitrogen. Reactions were terminated by heating at 100° C. for 30 seconds and the proteins were removed by centrifugation at 14,000 g for six minutes. Aliquots (100 μL) were then analyzed for nucleosides by HPLC. Control incubations were performed in the absence of protein.
Inhibition of azido reduction assay: Assays were performed using 1.5 mg microsomal protein as described above following either a 45 second exposure to carbon monoxide or a 5 minute pre-incubation with 1 mM metyrapone prior to the addition of NADPH.

[7] = test system: HIV-1; settings: relative to parent compounds ddA, ddI; cited from earlier work
[8] = in vivo; cited from earlier work
[9] = 6-AAP incubated in mouse liver homogenate
[10] = female, NIH-Swiss, mouse, in vivo, iv, 55 mg/kg
[11] = female, NIH-Swiss, mouse, in vivo, po, 55 mg/kg

O=c1[nH]cnc2c1ncn2[C@@H]1O[C@H](CO)[C@@H](O)[C@@H]1O [Ara-H, 9-(β-D-arabinofuranosyl)hypoxanthine]
half-life at 100 μg/mL [1]: 2.24 h
Kel [2, 9]: 0.26 h⁻¹
T1/2 [2, 9]: 2.45 h
Kel ([2]; Ara-A incubated in mouse liver homogenate): 0.31 h⁻¹

CNc1ncnc2c1ncn2[C@@H]1O[C@H](CO)C[C@@H]1F [FMAddA, N^6-methyl-2′,3′-dideoxy-2′-fluoro-β-D-arabinofuranosyladenine]
stability in phosphate buffer saline [3]: stable
half-life in brain homogenate ([3]; mouse brain homogenate): stable
t1/2 in liver homogenate (metabolized to 2′-F-ara-ddI) ([3]; mouse liver homogenate): 9.1 h
degradation half-life in mouse serum ([3]; mouse serum, 37° C.): stable
t½ upon addition of adenosine deaminase to PBS ([4]; PBS + adenosine deaminase): 0.46 h
extent of conversion to 2′-F-ara-ddI upon addition of adenosine deaminase ([4]; PBS and brain homogenate + adenosine deaminase): virtually all of the prodrug was converted
t1/2 upon addition of adenosine deaminase to brain homogenate ([4]; brain homogenate + adenosine deaminase): 3.7 h
intravenously administered dose of prodrug converted to 2′-F-ara-ddI ([5]; mouse, in vivo): 5.6%
Steady-state volume of distribution ([5]; mouse, in vivo, iv): 0.79 L/kg
Total clearance ([5]; mouse, in vivo, iv): 32.2 mL/min/kg

[N-]=[N+]=Nc1ncnc2c1ncn2C1OC(CO)CC1F [FAAddP, 6-azido-2′,3′-dideoxy-2′-fluoro-β-D-arabinofuranosylpurine]
stability in phosphate buffer saline [3]: stable
half-life at 70 μM ([3]; brain homogenate, pH 7.4, mouse brain homogenate, read-out: half-life in brain homogenate (converted)): 6.1 h
half-life at 70 μM ([3]; liver homogenate, pH 7.4, mouse liver homogenate, biphasic, after initial 45 minutes, read-out: t1/2 in liver homogenate, subsequent slower phase (converted)): 7.74 h
half-life at 70 μM ([3]; liver homogenate, pH 7.4, mouse liver homogenate, biphasic, initial phase, read-out: t1/2 in liver homogenate, initial 45 minutes (converted)): 0.48 h
half-life at 70 μM ([3]; mouse serum, 37° C., read-out: degradation half-life in mouse serum (converted)): 2.41 h
direct conversion to 2′-F-ara-ddI by adenosine deaminase ([4]; in vitro biotransformation): negligible rate
intravenously administered dose of prodrug converted to 2′-F-ara-ddI ([5]; female, NIH-Swiss, mouse, in vivo): Approximately 30%
clearance ([5]; female, NIH-Swiss, mouse, in vivo, iv): 18.7 mL/min/kg
t½ [5, 10]: 0.22 h
half-life [5, 10]: 0.22 h
AUC/Dose [5, 11]: 0.19 μM · h/μmol/kg
bioavailability [5, 11]: 19%
AUC [5, 11]: 34.2 µM·h
half-life [5, 11]: 1.53 h
azido reduction (metabolites formed) [6]: metabolized to 2′-F-ara-ddA and 2′-F-ara-ddI

Nc1ncnc2c1ncn2[C@@H]1O[C@H](CO)C[C@@H]1F [2′-F-ara-ddA, 2′-fluoro-2′,3′-dideoxyadenosine]
AUC0-τ [5, 10]: 3.9 µM·h
AUC [5, 10]: 3 µM·h
AUC [5, 11]: 0.8 µM·h
half-life [5, 11]: 1.74 h
AUC/Dose ([5]; mice, after FAAddP 55 mg/kg iv, brain): 0.02 μM · h/μmol/kg
AUC/Dose ([5]; mice, after FAAddP 55 mg/kg iv, serum): 0.04 μM · h/μmol/kg
AUC/Dose ([5]; mice, after FAAddP 55 mg/kg oral, serum): 0.005 μM · h/μmol/kg
potency in protecting CD4+ATH8 cells from cytopathogenic effects of HIV-1 [7]: as potent as the parent compounds

Nc1nc2c(ncn2COCCO)c(=O)[nH]1 [Acyclovir]
oral bioavailability [8]: 15-20%
